Earlier results in patent US20070203078A1, “METHOD FOR THE TREATMENT AND DIAGNOSIS OF CERTAIN PSYCHIATRIC DISORDERS RELATED TO THE MENSTRUAL CYCLE” (THE REGENTS OF THE UNIVERSITY OF CALIFORNIA, priority 2004, published 2007).

Molecular target: T1, δ subunit-containing GABAARs (Mus musculus, UniProt P22933)
T1 construct: tonic conductance mediated by δ subunit-containing GABAARs in several classes of neurons; host or cells: neurons (cerebellar granule cells, dentate gyrus granule cells and interneurons are named)
T1 sequence (P22933 25-449): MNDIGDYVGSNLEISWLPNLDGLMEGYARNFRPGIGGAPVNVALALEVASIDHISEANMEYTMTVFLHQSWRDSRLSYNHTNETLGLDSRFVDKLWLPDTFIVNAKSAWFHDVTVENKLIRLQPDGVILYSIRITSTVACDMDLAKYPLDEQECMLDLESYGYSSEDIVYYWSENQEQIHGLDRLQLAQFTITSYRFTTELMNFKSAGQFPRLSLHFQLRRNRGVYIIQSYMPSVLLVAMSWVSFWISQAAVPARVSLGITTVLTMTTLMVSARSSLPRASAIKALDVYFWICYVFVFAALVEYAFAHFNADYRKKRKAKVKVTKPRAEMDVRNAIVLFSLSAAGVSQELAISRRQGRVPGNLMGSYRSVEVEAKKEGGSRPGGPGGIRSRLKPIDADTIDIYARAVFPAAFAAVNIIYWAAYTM
Conditions: THDOC in the physiological range (10 nM)

For `C[C@]12CC[C@@H](O)C[C@H]1CC[C@@H]1[C@@H]2CC[C@]2(C)[C@@H](C(=O)CO)CC[C@@H]12` [THDOC], the “effect on synaptic currents” value is given as “no effect” and the “effect on tonic conductance mediated by δ subunit-containing GABAARs” value (several classes of neurons) is given as “significantly potentiate”.
